Data on two compounds can be found in PMC12395807, “Chemoreceptor family in plant-associated bacteria responds preferentially to the plant signal molecule glycerol 3-phosphate” (Genome Biology, 2025).

The subject of test [1] is P. atrosepticum SCRI1043 pacP mutant (MpacP). As to the kind of experiment: Quantitative capillary chemotaxis assay, pacP mutant. As to conditions: 1 mM ligand. The class given is cell-based, Pectobacterium atrosepticum. An excerpt: A mutant defective in ECA_RS12390 was constructed by homologous recombination using a derivative plasmid of the suicide vector pKNG101. Briefly, a 0.5-kb fragment corresponding to the region encoding the LBD of ECA_RS12390 was amplified by the primers specified in Additional file 2: Table S2 and cloned into pGEM®-T. The resulting plasmid pGEM::ECA_RS12390 was digested with XmaI, and the 0.5-kb insert was cloned into the same site at pKNG101 to generate pKNG101::ECA_RS12390. This plasmid was subsequently transformed into P. atrosepticum SRCI1043 via biparental conjugation using E. coli β2163. All the plasmids were verified by PCR and sequencing. The pETb(+) derivatives encoding the LBD of the different receptors analyzed in this study (Table 1) were purchased from GeneScript. Plasmid pBBR-ECA_RS12390 was constructed by amplifying the pacP gene using the primers detailed in Additional file 2: Table S2 and cloning of the PCR product into the NdeI/BamHI sites of pBBR1MCS2_START. The sequences of the proteins analyzed in this study are provided in Additional file 2: Table S3. The ECA_RS12390 nucleotide sequence is available in the published genome of P. atrosepticum SCRI1043 [60].
(§1) Overnight cultures of P. atrosepticum SCRI1043 were grown at 30 °C in minimal medium. At an OD660 of 0.4–0.45, the cultures were washed twice with chemotaxis buffer (50 mM K2HPO4/KH2PO4, 20 μM EDTA, 0.05% (v/v) glycerol, pH 7.0) and diluted to an OD660 of 0.1 in the same buffer. Subsequently, 230 μL of the resulting bacterial suspension was placed into the wells of 96-well plates. One-microliter capillary tubes (P1424, Microcaps; Drummond Scientific) were heat-sealed at one end and filled with either chemotaxis buffer (negative control) or chemotaxis buffer containing PacP ligands at a concentration of 1 mM. The capillaries were immersed in the bacterial suspensions at their open ends. After 30 min at room temperature, the capillaries were removed from the bacterial suspensions, rinsed with sterile water, and the contents were expelled into 1 mL of 40 mM K2HPO4, 15 mM KH2PO4. Serial dilutions were plated onto minimal medium supplemented with 15 mM glucose as the carbon source. The number of colony-forming units was determined after 36 h of incubation at 30 °C. In all the cases, the data were corrected with the number of cells that swam into the buffer-containing capillaries.

Test [2] has as its target LBD of chemoreceptor R4 (WP_158281851.1) (Rivihabitans pingtungensis, UniProt A0A318KJN4). The experiment in a line: ITC binding to R4-LBD. Details: species or system Rivicola pingtungensis. As to conditions: 20 °C, Nb = no binding. Here is the method:
(§2) Plasmids for the overexpression of the different proteins were transformed into E. coli BL21(DE3). The resulting strains were grown under continuous stirring (200 rpm) at 30 °C in 2-L Erlenmeyer flasks containing 500 mL of LB medium supplemented with 50 μg/mL kanamycin. At an OD660 of 0.5, protein expression was induced by the addition of 0.1 mM isopropyl β-D-1-thiogalactopyranoside. Growth was continued at 16 °C overnight prior to cell harvesting by centrifugation at 10,000 × g for 20 min. Cell pellets were resuspended in buffer A (Additional file 2: Table S4) and subsequently broken by French press treatment at 62.5 lb/in^2. After centrifugation at 20,000 × g for 30 min, the supernatants were loaded onto 5-mL HisTrap HP columns (Amersham Biosciences) equilibrated with buffer A, and the proteins were eluted with a linear gradient of buffer B (Additional file 2: Table S4). All proteins contain a hexa-histidine tag at the N-terminal extension (Additional file 2: Table S3) and were purified at 4 °C. The purified proteins were dialyzed overnight into the corresponding analysis buffers (Additional file 2: Table S4) for immediate analysis.
(§3) All experiments were conducted on a VP microcalorimeter (Microcal, MA) at 15 °C for PacP-LBD and at 20 °C for the remaining proteins. Proteins were dialyzed into the analysis buffers specified in Additional file 2: Table S4, placed into the sample cell and titrated with aliquots of ligand solutions (1 to 10 mM) freshly prepared in dialysis buffer. The mean enthalpies measured from the injection of the ligands into the analysis buffer were subtracted from the raw titration data prior to data analysis with the MicroCal version of ORIGIN. The data were fitted with the “One binding site model” of ORIGIN.

The subject of test [3] is P. atrosepticum SCRI1043 ΔcheA. As to the kind of experiment: Quantitative capillary chemotaxis assay, cheA mutant. Type of test: cell-based, Pectobacterium atrosepticum. As to conditions: 1 mM ligand. On the procedure: as §1
Fig. S2) Quantitative capillary chemotaxis assays of different P. atrosepticum SCRI1043 strains to 1 mM Glycerol 3-phosphate (A) and 3-phosphoglycerate (B). […]

The target of test [4] is LBD of chemoreceptor R7 (WP_019915375.1). The experiment in a line: ITC binding to R7-LBD. Details: species or system Methyloversatilis discipulorum. As to conditions: 20 °C, Nb = no binding. On the procedure:
as §2, §3

For test [5], the system named is Bdellovibrio bacteriovorus. Details: method as in PMID 119030, PMID 500565. As to conditions: cited from earlier work.
For test [6], the target named is LBD of chemoreceptor R10 (WP_028866120.1). The experiment in a line: ITC binding to R10-LBD. Further details: species or system Psychromonas aquimarina. As to conditions: 20 °C, Nb = no binding. Here is the method: as §2, §3
Test [7] deals with P. atrosepticum SCRI1043. As to the kind of experiment: Quantitative capillary chemotaxis assay, wild type. As to conditions: wild type SCRI1043, 1 mM ligand, 30 min. Type of test: cell-based, Pectobacterium atrosepticum. On the procedure:
as §1

Test [8] has as its target ligand binding domain of the chemoreceptor ECA_RS12390 (PacP-LBD, R1, WP_011094075.1) (Pectobacterium atrosepticum, UniProt Q6D464). The experiment in a line: ITC binding to PacP-LBD. As to conditions: 15 °C, Nb = no binding. Here is the method: as §2, §3
Test [9] has as its target LBD of chemoreceptor R6 (WP_174062248.1). As to the kind of experiment: ITC binding to R6-LBD. Details: species or system Agrobacterium larrymoorei. As to conditions: 20 °C, Nb = no binding. On the procedure:
as §2, §3

Chain of LBD of chemoreceptor R7 (WP_019915375.1) (as listed by the source): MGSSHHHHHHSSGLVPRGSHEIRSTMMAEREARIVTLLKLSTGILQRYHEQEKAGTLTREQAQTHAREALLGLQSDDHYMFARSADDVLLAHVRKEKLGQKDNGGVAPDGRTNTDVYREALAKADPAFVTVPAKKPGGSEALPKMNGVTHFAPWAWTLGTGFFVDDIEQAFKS
Chain of LBD of chemoreceptor R4 (WP_158281851.1) (A0A318KJN4 entry or part of it): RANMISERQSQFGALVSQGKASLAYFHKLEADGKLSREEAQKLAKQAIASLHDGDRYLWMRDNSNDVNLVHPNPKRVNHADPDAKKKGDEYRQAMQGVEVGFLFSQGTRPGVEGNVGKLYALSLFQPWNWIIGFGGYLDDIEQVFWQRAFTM
Chain of ligand binding domain of the chemoreceptor ECA_RS12390 (PacP-LBD, R1, WP_011094075.1) (Q6D464 entry or part of it): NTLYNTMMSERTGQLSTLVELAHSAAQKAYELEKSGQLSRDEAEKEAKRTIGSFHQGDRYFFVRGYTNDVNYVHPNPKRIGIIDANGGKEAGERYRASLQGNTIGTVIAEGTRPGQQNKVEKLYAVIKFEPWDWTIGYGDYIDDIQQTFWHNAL

By Kd is commonly meant the free concentration of one partner at which half of the binding sites on the other are occupied at equilibrium, for simple one-to-one binding. Higher therefore signals weaker binding. For `O=C(O)[C@@H](O)COP(=O)(O)O` [3-phosphoglycerate], the “chemotaxis (capillary assay)” value in [1] is recorded as “Only glycerol 2-phosphate served as an attractant for the mutant”; in test [3], “failed to respond”; in [7] it was “significantly greater”. Further, the Kd in [2] came out at 926 ± 8 µM; in test [8] it was 88 ± 5 µM. The KD result in test [4], in test [6] and in [9] was “Nb” throughout. Besides, the chemotaxis entry in test [5] is on record as “weak chemotaxis”.
Take `O=P(O)(O)OCC(O)CO` (centres unmarked) [glycerol 3-phosphate]: the “chemotaxis (capillary assay)” value in test [1] is on record as “Only glycerol 2-phosphate served as an attractant for the mutant”; in test [3], “failed to respond”; in test [7] it was “significantly greater”; in test [7] (listed as Glycerol 3-phosphate), “strongest chemotaxis”. Moreover, the Kd came out at 7 ± 0.2 µM in [2] and 3 ± 0.2 µM in [8]. Further, the KD entry in test [4] was “bound”; in test [4] (listed as Glycerol 3-P), “Nb”; in [6], “Nb”; in [9] it was “Nb”. The chemotaxis entry in test [5] is “weak chemotaxis”.
